Biological target: T1, HCV NS3/4A protease complex, H77C strain (Hepatitis C virus genotype 1a, UniProt P27958, C1454S)
T1 construct: recombinant HCV NS3/4A protease complex (amino acids 1027 to 1711); inferred from pET21b vector and Ni-NTA purification; made in house; host or cells: Escherichia coli BL21 (DE3), pET21b
Test: Recombinant HCV NS3/4A protease complex FRET peptide assay (H77C strain)
Assay type: biochemical, HCV genotype 1a
Excerpt: Recombinant HCV NS3/4A Protease Complex FRET Peptide Assay
The purpose of this in vitro assay was to measure the inhibition of HCV NS3 protease complexes, derived from the BMS, H77C or J416S strains, as described below, by compounds of the present invention. This assay provides an indication of how effective compounds of the present invention would be in inhibiting HCV proteolytic activity.
Serum from an HCV-infected patient was obtained from Dr. T. Wright, San Francisco Hospital. An engineered full-length cDNA (compliment deoxyribonucleic acid) template of the HCV genome (BMS strain) was constructed from DNA fragments obtained by reverse transcription-PCR(RT-PCR) of serum RNA (ribonucleic acid) and using primers selected on the basis of homology between other genotype 1a strains. From the determination of the entire genome sequence, a genotype 1a was assigned to the HCV isolate according to the classification of Simmonds et al. (See P Simmonds, Kans. Rose, S Graham, S W Chan, F McOmish, B C Dow, E A Follett, P L Yap and H Marsden, J. Clin. Microbiol., 31(6), 1493-1503 (1993)). […]

T1 sequence (P27958 1027-1657 C1454S): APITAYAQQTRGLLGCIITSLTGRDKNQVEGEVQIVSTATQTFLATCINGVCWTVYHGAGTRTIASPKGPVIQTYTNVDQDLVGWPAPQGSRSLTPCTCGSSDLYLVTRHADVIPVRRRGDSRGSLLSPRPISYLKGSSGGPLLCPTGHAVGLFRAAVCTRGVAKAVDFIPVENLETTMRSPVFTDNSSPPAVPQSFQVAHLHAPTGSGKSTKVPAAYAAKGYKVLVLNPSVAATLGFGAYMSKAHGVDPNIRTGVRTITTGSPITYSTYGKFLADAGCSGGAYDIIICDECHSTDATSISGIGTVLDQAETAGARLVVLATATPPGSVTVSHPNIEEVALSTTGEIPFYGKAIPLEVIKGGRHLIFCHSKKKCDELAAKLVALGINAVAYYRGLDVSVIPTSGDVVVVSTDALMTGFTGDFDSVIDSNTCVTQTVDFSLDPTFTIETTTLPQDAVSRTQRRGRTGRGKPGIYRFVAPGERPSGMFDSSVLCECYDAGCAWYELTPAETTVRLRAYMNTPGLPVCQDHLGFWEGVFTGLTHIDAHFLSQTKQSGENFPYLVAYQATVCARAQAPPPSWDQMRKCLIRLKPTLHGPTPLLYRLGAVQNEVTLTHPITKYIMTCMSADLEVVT
T1 sequence (P27958 1658-1714 partner, looked up, stated change not applied): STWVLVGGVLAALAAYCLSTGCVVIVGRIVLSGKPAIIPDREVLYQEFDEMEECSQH

C=C[C@@H]1C[C@]1(NC(=O)[C@@H]1C[C@@H](Oc2nc(C3CC3)cc3ccccc23)CN1C(=O)[C@@H](NC(=O)OC(C)(C)C)C(C)(C)C)C(=O)NS(=O)(=O)C1CC1 [Compound 34]
IC50: 3 nM

Reference: US7915291B2, “Hepatitis C virus inhibitors” (Bristol-Myers Squibb Company, priority 2002, dated 2011)
